The text below walks through data of patent US7166456B2, “Microorganism for producing riboflavin and method for producing riboflavin using the same” (CJ Corp., priority 2002, dated 2007).

The test system of test [1] is Bacillus subtilis AS5. Description: Evaluation of resistance against thiaproline (growth on thiaproline-containing minimal medium). The format is cell-based. Also noted: key to growth of strain: +: growth; −: not growth. As to conditions: 37° C., 5 days. The procedure:
(§1) The Bacillus subtilis AS5 as the parent strain was obtained from BIONOM-S, Ltd. (Obolensk, Moscow, Russia). The Bacillus subtilis AS5 was suspended in phosphate buffer at pH 7.0 or citrate buffer at pH 5.5 to have a cell density of 10^7 to 10^8 cells/ml. A mutation-inducing agent, N-methyl-N′-nitro-N-nitrosoguanidine was added to the suspension until its concentration was 10 to 50 μg/ml. The resultant mixture was incubated at room temperature or 30° C. for 30 to 60 minutes to induce mutation. Then, the mixture was washed three times with 0.85% of saline solution and diluted in an appropriate manner. The diluted solution was plated onto 1.8% agar-containing minimal media with various concentrations of thiaproline and cultured at 37° C. for 5 days to obtain colonies. In this case, the concentration of thiaproline ranged from 0 mg/l to 100 mg/l. The formed colonies were inoculated onto nutrient agar media and cultured at 37° C. for 24 hours. Then, the resultant nutrient cultures were inoculated onto fermentation media and cultured at 37° C. for 4 to 5 days. The highest riboflavin-producing strain was selected.
In this example, in order to evaluate resistance to thiaproline, the Bacillus subtilis CJKB0001 (KCCM-10445) of Example 1 and the Bacillus subtilis AS5 as the parent strain were cultured in various concentrations of thiaproline-containing media. In detail, respective strains were inoculated onto thiaproline-containing media as shown in Table 1 and cultured at 37° C. for 5 days. In this case, the concentration of thiaproline ranged from 0 to 100 mg/l.

In test [2] the test system is Bacillus subtilis CJKB0001 (KCCM-10445). The description is as above. The format is cell-based. Also on record: key: +: growth; −: not growth. As to conditions: 37° C., 5 days. The procedure: as §1
In this example, in order to evaluate resistance to thiaproline, the Bacillus subtilis CJKB0001 (KCCM-10445) of Example 1 and the Bacillus subtilis AS5 as the parent strain were cultured in various concentrations of thiaproline-containing media. […]

In the case of `O=C(O)[C@@H]1CSCN1` [thiaproline], the growth of strain entry in test [1] (40 mg/l thiaproline) was “+”; in test [1] (50 mg/l thiaproline), “−”; in test [1] (70 mg/l thiaproline), “−”; in test [1] (100 mg/l thiaproline) it was “−”; in test [2] (70 mg/l thiaproline), “+”; in test [2] (100 mg/l thiaproline), “−”. In test [1] (thiaproline-containing medium), the “thiaproline concentration at which the strain cannot grow” value is listed as “more than 40 mg/l”.
